Literature values as cited in patent publication US10633811B1, “Apparatus and method for collecting and disposing of pet waste” (COSMIC PET LLC, priority 2017, dated 2020).

Experiments:
Campylobacter jejuni = conditions: strain not given
C. jejuni C338 = conditions: Table 3, single compounds; Nutrient Broth No. 2, 37° C., Tween 80 0.002% vol/vol
C. jejuni 3393 = conditions: Table 3, single compounds; Nutrient Broth No. 2, 37° C., Tween 80 0.002% vol/vol
C. coli ATCC 43484 = conditions: Table 3, single compounds; Nutrient Broth No. 2, 37° C., Tween 80 0.002% vol/vol
E. coli O26 = conditions: Table 3, single compounds; Nutrient Broth No. 2, 37° C., Tween 80 0.002% vol/vol
[1] = tested on: S. typhimurium ATCC 14028; conditions: Table 3, single compounds; Nutrient Broth No. 2, 37° C., Tween 80 0.002% vol/vol
E. faecalis ATCC 29212 = conditions: Table 3, single compounds; Nutrient Broth No. 2, 37° C., Tween 80 0.002% vol/vol
[2] = tested on: Pseudomonas aeruginosa PAO1; conditions: CAMHB, 0.1% Tween 80
Campylobacter spp. = conditions: against Campylobacter spp., E. coli, S. typhimurium, and E. faecalis

For `Cc1ccc(C(C)C)cc1O` [Carvacrol], the “C.jejuni 108 MIC” value (C.jejuni 108) is listed as 300 to 400 µM, the “C.jejuni 81116 MIC” value (C.jejuni 81116) is listed as 300 to 400 µM and the “concentration that inhibits Campylobacter jejuni” value (Campylobacter jejuni) is listed as 0.3 to 0.4 mM.
In the case of `CC12CCC(CC1)C(C)(C)O2` [Cineole], the “C. jejuni C338 (MIC %)” value (C. jejuni C338) is listed as 0.25%, the “C. jejuni 3393 (MIC %)” value (C. jejuni 3393) is listed as 0.25% and the “C. coli ATCC 43484 (MIC %)” value (C. coli ATCC 43484) is listed as 0.25%. For the same compound, the “E. coli O26 (MIC %)” value (E. coli O26) was 1%, the “S. typhimurium ATCC 14028 (MIC %)” value [1] was 2% and the “E. faecalis ATCC 29212 (MIC %)” value (E. faecalis ATCC 29212) was over 2%.
For `O=CC=Cc1ccccc1` [Cinnamaldehyde], the MIC [2] is given as 0.1%.
In the case of `C=CCc1ccc(O)c(OC)c1` [Eugenol], the MIC [2] is listed as over 5%.
In the case of `C=CC(C)(O)CCC=C(C)C` (stereo not shown) [Linalool], the MIC [2] is listed as over 5%.
In the case of `C=CC(C)(O)CCC=C(C)CCC=C(C)C` (stereo not shown) [Nerolidol], the “C. jejuni C338 (MIC %)” value (C. jejuni C338) is given as 0.5%, the “C. jejuni 3393 (MIC %)” value (C. jejuni 3393) is given as 0.5% and the “C. coli ATCC 43484 (MIC %)” value (C. coli ATCC 43484) is given as 1%. The “E. coli O26 (MIC %)” value (E. coli O26) was over 2%, the “S. typhimurium ATCC 14028 (MIC %)” value [1] was over 2% and the “E. faecalis ATCC 29212 (MIC %)” value (E. faecalis ATCC 29212) was over 2%.
In the case of `CC1=CCC(O)(C(C)C)CC1` (stereo not shown) [Terpinen-4-ol], the “C. jejuni C338 (MIC %)” value (C. jejuni C338) is listed as 0.06%, the “C. jejuni 3393 (MIC %)” value (C. jejuni 3393) is listed as 0.06% and the “C. coli ATCC 43484 (MIC %)” value (C. coli ATCC 43484) is listed as 0.06%. The “E. coli O26 (MIC %)” value (E. coli O26) was 0.06%, the “S. typhimurium ATCC 14028 (MIC %)” value [1] was 0.06% and the “E. faecalis ATCC 29212 (MIC %)” value (E. faecalis ATCC 29212) was 0.5%. The “antimicrobial activity among single compounds” value (Campylobacter spp.) was “highest activity”.
In the case of `CC1=CC=C(C(C)C)CC1` [α-Terpinene], the “C. jejuni C338 (MIC %)” value (C. jejuni C338) is listed as 0.25%, the “C. jejuni 3393 (MIC %)” value (C. jejuni 3393) is listed as 0.125% and the “C. coli ATCC 43484 (MIC %)” value (C. coli ATCC 43484) is listed as 0.125%. For the same compound, the “E. coli O26 (MIC %)” value (E. coli O26) was over 2%, the “S. typhimurium ATCC 14028 (MIC %)” value [1] was over 2% and the “E. faecalis ATCC 29212 (MIC %)” value (E. faecalis ATCC 29212) was over 2%.
For α-Bisabolol, the “C. jejuni C338 (MIC %)” value (C. jejuni C338) is listed as 0.5%, the “C. jejuni 3393 (MIC %)” value (C. jejuni 3393) is listed as 0.125% and the “C. coli ATCC 43484 (MIC %)” value (C. coli ATCC 43484) is listed as 0.5%. For the same compound, the “E. coli O26 (MIC %)” value (E. coli O26) was 2%, the “S. typhimurium ATCC 14028 (MIC %)” value [1] was over 2% and the “E. faecalis ATCC 29212 (MIC %)” value (E. faecalis ATCC 29212) was over 2%.
